Measurements reported in patent publication EP4527828A1, “BIPHENYL COMPOUND, PHARMACEUTICAL COMPOSITION, METHOD FOR PREPARING SAME, AND USE THEREOF” (Longivitron (Suzhou) Biotechnology Co., Ltd, priority 2022, dated 2023).
Where two headings read alike, the source gives them in different places.

Legend:
Mouse LAG3 protein = molecular target: T1, Mouse LAG3 protein (Mus musculus, UniProt Q61790); experiment: SPR interaction assay, CM5 chip amino coupling, mouse LAG3; type: binding; conditions: for Kd / Rmax / Note / kon / koff: ligand Mouse LAG3 protein; for Note: bound or not bound; for kon: read-out: Ka; for koff: read-out: Kd
T1 sequence (Q61790 24-521): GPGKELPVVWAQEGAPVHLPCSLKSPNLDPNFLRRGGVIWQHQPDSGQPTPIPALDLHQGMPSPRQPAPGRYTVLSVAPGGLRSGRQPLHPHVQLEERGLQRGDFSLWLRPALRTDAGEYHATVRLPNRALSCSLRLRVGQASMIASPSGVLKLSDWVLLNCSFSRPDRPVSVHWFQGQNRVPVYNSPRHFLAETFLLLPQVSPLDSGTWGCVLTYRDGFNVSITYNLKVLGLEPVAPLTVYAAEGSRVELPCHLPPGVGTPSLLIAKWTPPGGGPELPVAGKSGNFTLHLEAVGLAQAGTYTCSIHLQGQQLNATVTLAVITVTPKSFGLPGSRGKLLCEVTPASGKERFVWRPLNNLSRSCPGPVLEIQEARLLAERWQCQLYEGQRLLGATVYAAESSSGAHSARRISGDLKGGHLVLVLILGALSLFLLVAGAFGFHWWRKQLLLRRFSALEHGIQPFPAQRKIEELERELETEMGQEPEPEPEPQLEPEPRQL
Description: A surface plasmon is an electromagnetic wave on a metal surface and is generated by the interaction of photons and electrons which are freely vibrated. Surface plasmon resonance (SPR) is an optical phenomenon that occurs on the surfaces of two media, and such a phenomenon can be induced by photons or electrons. When light enters an optically thinner medium from an optically denser medium, the phenomenon of total reflection occurs, and an evanescent wave is generated and enters the optically thinner medium. When the totally reflected evanescent wave meets the plasmon wave on the metal surface, resonance may occur, the energy of the reflected light decreases, and a resonance peak occurs on the energy spectrum of the reflected light. Such a resonance is called surface plasmon resonance. The angle of incidence causing the surface plasmon resonance is called an SPR angle. An SPR biosensor provides a sensitive, non-labeled detection technique for monitoring intermolecular interactions in real time. The sensor detects the change in the SPR angle, and the SPR is related to the refractive index of the metal surface. When an analyte binds to the chip surface, the refractive index of the chip surface changes, thus causing the change in the SPR angle. This is the basic principle for the SPR biosensor to detect intermolecular interactions in real time. During the interaction analysis, the change in the SPR angle is recorded on the sensorgram in real time.
Through the information query, the theoretical isoelectric point of the LAG3 protein is about 9.82, and the amino coupling method was contemplated to immobilize the protein. Since the main ligands of the LAG3 protein are FGL1 and MHCII proteins, after the LAG3 protein was coupled, the FGL1 protein sampling method was used to verify the protein activity.
Protein coupling buffer solution: 1.05× PBS-P+; 1.02× PBS-P+
Interaction buffer solution: 1.0× PBS-P+, 5% DMSO; 1.0× PBS-P+, 2% DMSO
In this experiment, by using the CM5 chip amino coupling method, the human LAG3 protein was immobilized to the Fc2 or Fc3 channel, and the mouse LAG3 protein was immobilized to the Fc3 or Fc4 channel.
LAG3 protein coupling conditions were as follows: the concentration was about 25 µg/mL, the system was sodium acetate solution with a pH of 5.5, the chip activation time was 420 s, and the blocking time was 420 s.
LAG3 protein coupling conditions were as follows: the concentration was about 50 µg/mL, the system was sodium acetate solution with a pH of 4.5, the chip activation time was 420 s, and the blocking time was 420 s.

[1] = tested on: mouse liver cancer HEPA1-6; type: in vivo; conditions: 27 days
Protocol: (1) 32 8-week-old female C57L mice were selected and divided into 5 cages. HEPA1-6 cells cultured with DMEM + 10% FBS in vitro were washed with PBS and digested with 0.25% trypsin for 3 min. The digestion was terminated with a serum-containing medium, the cells were centrifuged at 2500 rpm for 5 min, the supernatant was discarded, and the cells were resuspended with an appropriate amount of PBS twice. The number of cells was 1.14 × 10^7 cells/mL as counted with a BioRad counting instrument. The cell suspension was placed in an Erlenmeyer flask in an ice bath for later use. The tumor fluid was evenly aspirated using a 1 mL sterile syringe and inoculated 0.2 mL/mouse. After the inoculation was completed, the mice continued to be fed under the initial feeding conditions.
(2) Animal grouping: On the second day after tumor fluid inoculation of C57B/L mice, 32 mice were randomly grouped: 8 mice in a control group, 6 mice in a Compound 4-5 mg/kg group, 6 mice in a Compound 4-10 mg/kg group, 6 mice in a Compound 4-20 mg/kg group, and 6 mice in a positive control drug cyclophosphamide (CTX)-100 mg/kg group. The drug test groups were given the drugs to be tested orally once a day, and the positive control drug CTX was injected intraperitoneally once. The mice were weighed and administered daily.
(3) Drug preparation: The corresponding amounts of the drugs to be tested were weighed according to the final concentrations of the experimental groups. The drugs of the Compound 4-5 mg/kg group, the Compound 4-10 mg/kg group, and the Compound 4-20 mg/kg group were prepared with 5% CMCNa + Tween 80, and CTX was prepared with normal saline. The mice in the control group were given 5% CMCNa solution orally. The dosages were as follows: 0.4 mL/20 g body weight of the animal for intragastric administration, and 0.2 mL/20 g body weight of the animal for intraperitoneal injection.
(4) The animals were sacrificed, and the tumors were separated and weighed. The animals in each group were treated immediately 1 h after administration on the last day and weighed, and the tumor tissue was separated and weighed.

[2] = HEPA1-6, 10 mg/kg po once a day
[3] = HEPA1-6, 20 mg/kg po once a day

Row | Compound | interaction with the mouse LAG3 protein (Mouse LAG3 protein) | Kd (Mouse LAG3 protein) | Rmax (Mouse LAG3 protein) | Note (Mouse LAG3 protein) | kon (Mouse LAG3 protein) | koff (Mouse LAG3 protein) | Inhibition rate ([1]; HEPA1-6, 5 mg/kg po once a day) | Tumor weight ([1]; HEPA1-6, 5 mg/kg po once a day) | Inhibition rate [1, 2] | Tumor weight [1, 2] | Inhibition rate [1, 3] | Tumor weight [1, 3]
1 | CCCCCCOc1ccc(C(=O)O)cc1-c1cc(C(=O)NCCCCNC(=O)C(F)(F)F)ccc1OCCCCCC [Compound 8] | interacts with the mouse LAG3 protein | 5.42 µM | 3.955 RU | Bound | 1870 M⁻¹ s⁻¹ | 0.0101 s⁻¹ | – | – | – | – | – | –
2 | CCCCCCOc1ccc2cc1-c1cc(ccc1OCCCCCC)C(=O)CCCCCC2=O [Compound 4] | interacts with the mouse LAG3 protein | 13.2 µM | 5.214 RU | Bound | 1060 M⁻¹ s⁻¹ | 0.014 s⁻¹ | 24.72% | 0.510 ± 0.312 g | 52% | 0.325 ± 0.256 g | 36.56% | 0.430 ± 0.140 g
